Key:
3-NP-lesioned rat = conditions: systemic administration; cited from earlier work
striatal tissue cultures = conditions: cited from earlier work
pancreatic islet cells = assay: Apoptosis (TUNEL) of pancreatic islet cells in vitro; assay type: cell-based; conditions: 2 days in vitro
Experimental: As another example, TUDCA was also effective in reducing apoptosis of pancreatic islet cells after 2 days in vitro. The number of TUNEL-positive cells was approximately 29 in non-treated controls, but only 12 in cells exposed to TUDCA. The more than 50% reduction by apoptosis by TUDCA was achieved after exposure of cells to TUDCA during the isolation procedure, followed by incubation with the bile acid during culture in vitro.

[1] = system: TH-positive neurons and total cells in ventral mesencephalic (VM) tissue cultures; assay: Dopamine neuron survival in serum-free ventral mesencephalic tissue cultures (TH-positive and total cell counts); assay type: cell-based, rat
Experimental: In order to examine the effects of TUDCA on apoptosis and the survival of dopamine neurons in VM tissue cultures under serum-free conditions and to determine an appropriate dosage of TUDCA, primary neuronal cultures were prepared from the VM tissue of SD rat embryos and incubated with or without the addition of TUDCA (Calbiochem, La Jolla, Calif., free base, dissolved in 0.15M (where “M” is molar concentration) NaHCO3 buffer). […] Therefore, TUDCA was added to a final concentration of 50 μM to the culture medium when the culture medium was switched to serum-free conditions after two days in vitro. Neural survival and apoptosis were determined by counting TH-positive cells and TUNEL-positive cells in the cultures two or seven days in vitro. A total of three separate series of cell culture experiments were performed.
For each experimental series, pooled VM tissue from 24-32 embryos was incubated in 0.1% trypsin (Sigma, St. Louis, Mo.)/0.05% DNase (Sigma, St. Louis Mo.) at 37 degrees Celsius (° C.) for 20 minutes (min), and mechanically dissociated using a 1 milliliter (ml) Gilson pipette. Following dissociation, the cells were centrifuged at 600 rotation per minute (rpm) for 5 min and the pellet was resuspended in Dulbecco's Modified Eagle's Medium (DMEM) (Gibco, Carlsbad, Calif.). The cell number and viabilities of dissociated cells were assessed with a hemocytometer using trypan blue dye exclusion. The number of 100,000 cells/cm^2 (178,000 cells per well) were plated on to four-well chamber slides (Nunc, Rochester, N.Y.) precoated with […] poly-d-lysine (Sigma, St. Louis Mo.). The viabilities of dissociated cells were over 95%. Cell cultures were incubated for 2 days in DMEM supplemented with 10% fetal calf serum at 37° C. in a 95% air/5% CO^2 humidified atmosphere. After 2 days in vitro, the culture medium was switched to serum-free N2 medium, consisting of DMEM/Ham's F 12(1:1) mixture (Gibco, Carlsbad, Calif.).
At this time point, some cultures were supplemented with TUDCA. […]

[2] = system: TH-immunoreactive neurons in intrastriatal nigral grafts; assay: Graft survival: TH-immunocytochemistry and graft volume 6 weeks after transplantation; assay type: in vivo, rat
[3] = system: TUNEL-positive cells in VM tissue cultures; assay: TUNEL assay of apoptosis in VM tissue cultures; assay type: cell-based, rat; conditions: 50 μM TUDCA, p<0.01
Experimental: In order to examine the effects of TUDCA on apoptosis and the survival of dopamine neurons in VM tissue cultures under serum-free conditions and to determine an appropriate dosage of TUDCA, primary neuronal cultures were prepared from the VM tissue of SD rat embryos and incubated with or without the addition of TUDCA (Calbiochem, La Jolla, Calif., free base, dissolved in 0.15M (where “M” is molar concentration) NaHCO3 buffer). […] Therefore, TUDCA was added to a final concentration of 50 μM to the culture medium when the culture medium was switched to serum-free conditions after two days in vitro. Neural survival and apoptosis were determined by counting TH-positive cells and TUNEL-positive cells in the cultures two or seven days in vitro. […]
For each experimental series, pooled VM tissue from 24-32 embryos was incubated in 0.1% trypsin (Sigma, St. Louis, Mo.)/0.05% DNase (Sigma, St. Louis Mo.) at 37 degrees Celsius (° C.) for 20 minutes (min), and mechanically dissociated using a 1 milliliter (ml) Gilson pipette. […] The cell number and viabilities of dissociated cells were assessed with a hemocytometer using trypan blue dye exclusion. […]
For the cell culture experiments, the number of TUNEL-positive cells was assessed at ×400 magnification with the aid of a 400-μm square, reticule grid. […] Average number of TUNEL-positive cells was calculated and represented a value for single animals.

6-OHDA lesioned rats = assay: Amphetamine-induced rotation test after nigral grafting in unilateral 6-OHDA lesioned rats; assay type: in vivo, rat
Text: A total of 24 adult female Sprague-Dawley (SD) rats, weighing about 250 grams (g) at the beginning of the experiments were used as subjects of neural grafts. Among them, 12 rats were subjected to an extensive unilateral 6-hydroxydopamine (6-OHDA) lesion of the mesostriatal dopamine (DA) system and 12 rats were normal.
The 6-OHDA lesioned rats and normal rats were randomly assigned to the TUDCA-treated (n=6 in each group) or the vehicle control (n=6 in each group) group, respectively. The rats were housed 2 per cage under a 12 hour day-night cycle with ad libitum access to food and water. They were maintained and treated in accordance with published National Institutes of Health guidelines.
For the TUDCA-treated rats, a 50 μM concentration of TUDCA was added to the media when nigral tissue was trypsinized and dissociated. Two microliters of cell suspension containing TUDCA were then stereotaxically injected into the striatum of SD rats. For the control animals, the same amount of vehicle solution was added to the media. In the first series of transplantation experiment, normal rats that received neural transplants were sacrificed 4 days post-grafting and brain sections were prepared for the terminal deoxynucleotidyl transferase (TdT)-mediated dUTP-biotin nick end labeling (TUNEL) assay to determine apoptosis in the transplantation areas. In the second series of transplantation experiments, an amphetamine-induced rotation test was used to assess the completeness of the 6-OHDA lesions prior to grafting, and repeated two and six weeks after transplantation to monitor functional effects of the neural grafts. The rats were sacrificed after the last session of the rotational behavioral test and the brain tissue was processed for tyrosine hydroxylase (TH)-immunocytochemistry. Graft survival was assessed by counting the number of TH-positive neurons in the grafts.
Two injections of 6-OHDA (hydrochloride salt, Sigma, St. Louis Mo.) were made into the right ascending mesostriatal DA pathway under equithesin anaesthesia (0.3 ml/100 g body wt. i.p.) as described previously (W.-M. Duan et al., Neuroscience 57:261-274; 1993). Briefly, a first injection of 2.5 microliter (μl) of 6-OHDA (3 microgram/microliter (μg/μl), free base, in 0.2 mg/ml ascorbate-saline) was performed at the following coordinates: 4.4 millimeter (mm) caudal to bregma; 1.2 mm lateral to midline; 7.8 mm ventral to the dural surface; with the tooth-bar set at 2.4 mm below the interaural line. A second injection of 2 μl of 6-OHDA was performed at the following coordinates; 4.0 millimeter (mm) caudal to bregma; 0.8 mm lateral to midline; 8.0 mm ventral to the dural surface; with the tooth-bar set at 3.4 mm above the interaural line. The 6-OHDA was infused at a rate of 1 μl/min, and the cannula was left in place for an additional 4 min before it was withdrawn.
Two to three weeks after the lesion surgery, the rats were given 5 milligram per kilogram (mg/kg) of d-amphetamine sulphate (Sigma, St. Louis Mo.) in saline, i.p. and their rotational behavior was monitored in automated rotometer bowls for 90 min (U. Ungerstedt et al., Brain Res. 24: 485-493; 1970). […] The rotational test was then repeated at two different time-points as mentioned in the experimental design.
A cell suspension technique was used to perform the neural transplants as previously described (A. Björklund et al., Acta. Physiol. Scand. Suppl. 522:9-18; 1983; P. Brundin et al., In: P. M. Conn, ed., Methods in Neurosciences, Lesions and Transplantation, Academic Press, San Diego, Vol 7, 1991:305-326). Briefly, VM tissue was obtained from embryos with a crown-to-rump length of 13-14 mm, corresponding to a gestational age of embryonic day 14. Dissection and preparation of the donor tissue were carried out under aseptic conditions in Hank's balanced salt solution (HBSS) (Gibco, Carlsbad, Calif.). […]

[4] = system: TUNEL-positive cells in the grafted areas; assay: TUNEL assay of apoptosis in graft areas 4 days post-transplantation; assay type: in vivo, rat; conditions: normal rats, p<0.01
Experimental: For the TUDCA-treated rats, a 50 μM concentration of TUDCA was added to the media when nigral tissue was trypsinized and dissociated. Two microliters of cell suspension containing TUDCA were then stereotaxically injected into the striatum of SD rats. For the control animals, the same amount of vehicle solution was added to the media. In the first series of transplantation experiment, normal rats that received neural transplants were sacrificed 4 days post-grafting and brain sections were prepared for the terminal deoxynucleotidyl transferase (TdT)-mediated dUTP-biotin nick end labeling (TUNEL) assay to determine apoptosis in the transplantation areas. […] Graft survival was assessed by counting the number of TH-positive neurons in the grafts.
A cell suspension technique was used to perform the neural transplants as previously described (A. Björklund et al., Acta. Physiol. Scand. Suppl. 522:9-18; 1983; P. Brundin et al., In: P. M. Conn, ed., Methods in Neurosciences, Lesions and Transplantation, Academic Press, San Diego, Vol 7, 1991:305-326). […] Before and after transplantation, the viabilities of the cell suspensions were assessed by the trypan blue dye exclusion method. […]

C[C@H](CCC(=O)NCCS(=O)(=O)O)[C@H]1CC[C@H]2[C@@H]3[C@@H](O)C[C@@H]4C[C@H](O)CC[C@]4(C)[C@H]3CC[C@]12C [TUDCA, tauroursodeoxycholic acid]
neurological deficits (3-NP-lesioned rat): ameliorate neurological deficits
striatal degeneration (3-NP-lesioned rat): reduce striatal degeneration
3-nitropropionic acid (3-NP)-mediated neuronal cell death (striatal tissue cultures): significantly reduces
number of TUNEL-positive cells (pancreatic islet cells; TUDCA during isolation and culture, non-treated controls approximately 29): 12
reduction of apoptosis (pancreatic islet cells; versus non-treated controls): more than 50%
number of TH-positive cells, TUDCA-treated cultures compared with 2DIV cultures ([1]; 50 μM TUDCA added at switch to serum-free medium after 2 days in vitro, counted at 7 DIV, p>0.05): No difference
cell loss of TH-positive neurons and total cells ([1]; 7DIV TUDCA-treated cultures, serum-free, 7 DIV control had only 30% of 2 DIV TH-positive neurons): not observed
dose dependence of neural protective effect ([1]; VM tissue cultures, serum-free): dose-dependent manner
areas of the host striatum reinnervated by the grafts compared to control group [2]: larger
graft volume compared to control group ([2]; p<0.05): significantly larger
number of TUNEL-positive cells, 7 DIV control versus 7 DIV TUDCA-treated cultures [3]: significantly higher in 7 DIV control cultures
mean net rotation values compared to pregrafting values (6-OHDA lesioned rats; 2 weeks after grafting, p<0.01, not in control group): significantly reduced
rats exhibiting at least 50% reduction in net motor asymmetry compared to pre-transplantation values (6-OHDA lesioned rats; 2 weeks after transplantation, cell suspension pre-treated with 50 μM TUDCA, none of the control animals): 4 of 6
net asymmetry values compared to control group (6-OHDA lesioned rats; 2 weeks after transplantation, p<0.05): lower net asymmetry values than the control group
motor asymmetry scores compared to pregrafting (6-OHDA lesioned rats; 6 weeks after surgery, p<0.05, both groups): significantly reduced motor asymmetry scores
difference in motor asymmetry scores between TUDCA-treated and control groups (6-OHDA lesioned rats; 6 weeks after surgery, p>0.05): not longer any difference
reduction in motor asymmetry scores (6-OHDA lesioned rats; 6 weeks following transplantation, all rats of both control and TUDCA-treated groups): > 50%
number of apoptotic (TUNEL-positive) cells in the grafted areas compared to control group [4]: significantly smaller
